From patent US7129275B2, “Compositions for treating acne comprising phytandiol amine” (Coreana Cosmetics Co., Ltd., priority 2001, dated 2006) come the findings set out here.

Holding throughout (test): Minimum inhibitory concentration on reinforced clostridial agar
Common to all, as to conditions: 3 days at 35° C., anaerobic, complete growth inhibition

The subject of one test is P. avidum ATCC 25577. The class given is cell-based, Propionibacterium avidum. As to the method: (§1) To evaluate an antimicrobial activity of the phytandiol amine of this invention against acne pathogen, the minimum inhibitory concentration (hereinafter referred to as “MIC”) of the samples shown in Table 1 was measured as follows: The sample to be tested was added to reinforced clostridial agar medium (available from Difco Co.) in the amount of 0.001–0.1%, followed by solidification of the medium. The suspension of acne pathogenic bacteria found in Table 1 was streaked on the surface of the medium and the medium was incubated for 3 days at 35° C. under anaerobic condition.

In a further test the test system is P. acne ATCC 11828. It counts as cell-based, Propionibacterium acnes. The protocol: as §1
The subject of a further test is P. acnes ATCC 6919. It counts as cell-based, Propionibacterium acnes. As to the method:
as §1

As for `CC[C@H]1OC(=O)[C@H](C)[C@@H](O[C@H]2C[C@@](C)(OC)[C@@H](O)[C@H](C)O2)[C@H](C)[C@@H](O[C@@H]2O[C@H](C)C[C@H](N(C)C)[C@H]2O)[C@](C)(O)C[C@@H](C)C(=O)[C@H](C)[C@@H](O)[C@]1(C)O` [Erythromycin], the MIC against P. avidum ATCC 25577, with P. acne ATCC 11828 and against P. acnes ATCC 6919 was 0.02% throughout.

`O=C(OOC(=O)c1ccccc1)c1ccccc1` [Benzoyl peroxide]: the MIC against P. avidum ATCC 25577, against P. acne ATCC 11828 and in the test on P. acnes ATCC 6919 was 0.1% in each case.
